US9068166B2, “Use of compounds for inducing differentiation of mesenchymal stem cells to chondrocytes” (Industry-Academic Cooperation Foundation Yonsei University, priority 2010, dated 2015)

How the values were obtained:
[1] = test system: human adipose tissue-derived mesenchymal stem cells; assay: Sandwich ELISA of aggrecan expression (chondrocyte marker) in treated mesenchymal stem cells; format: cell-based; details: for induction of differentiation of mesenchymal stem cells to chondrocytes (aggrecan expression) compared with A1942: sandwich ELISA, p<0.001 vs. control, FIG. 5
Method: (§1) 60 cc of an expanding solution (obtained by adding 30 mL of 1% lidocaine, 30 mL of 0.5% bupivacaine, 10 mL of 4.2% sodium bicarbonate and 1 mg of epinephrine to 1 L of normal water for injection) was applied to the periphery of a navel under sterile conditions. Fats were suctioned using Mercedes 3 mm×9 cm Aspiration Luer Lock Cannula (Byron Medical, Tucson, Ariz.), and then instantly kept on ice. Since a lipoaspirate filtered through a 250 mm sieve included an anesthetic and a contaminant such as blood, the lipoaspirate was washed with phosphate buffered saline (PBS) to remove the anesthetic and the contaminant. Collagenase I (1 mg/mL; Worthington Biochemical Corp., Lakewood, N.J.) was added to the obtained fat tissues, stirred, and then kept at 37° C. for an hour. The suspended adipose tissues were centrifuged at 1,500×g for 10 minutes, and a supernatant containing matured fat cells was discarded. The obtained stroma vascular (SV) cells were washed with 0.1% BSA, suspended in an M-199 medium (including 12.8% fetal bovine serum, heparin, 10,000 U/mL penicillin G, 25 mg/mL amphotericin B, and 10,000 mg/mL streptomycin), plated on a gelatin-coated tissue culture flask, and then incubated. After 24 hours, the tissue culture flask was washed to remove non-attached cells, and the incubation was continued.
[…] In this case, the mesenchymal stem cells were incubated for 11 days while replacing a medium including the compound of Formula 1 with a fresh one once every 3 days.
A capture antibody was bound to the bottom of each well, and the plate was then incubated overnight at 4° C. The plate was washed twice with PBS (Gibco), and treated with 100 μl of PBS containing 3% BSA at room temperature for 2 to 3 hours. The plate was washed twice with PBS, and a cell lysate was added to each well. Then, the plate was incubated at room temperature for 2 hours under a wet atmosphere. The plate was washed four times with PBS containing 0.02% Tween-20 (Sigma). A detector antibody was added to the plate, and the plate was then incubated at room temperature for 2 hours under a wet atmosphere. Thereafter, the plate was incubated with a peroxidase-conjugated secondary antibody at 37° C. for an hour. Finally, the plate was treated with 100 μl of a tetramethylbenzidine (TMB) solution (Sigma) as a substrate, and 25 μl of 0.1 M H2SO4 was added as a terminating buffer to stop the reaction. Immediately after the reaction, the absorbance was measured at 450 nm using an ELISA plate reader (Bio-Rad).

[2] = test system: ERK; assay: Western blotting of ERK phosphorylation in treated mesenchymal stem cells; format: cell-based, human; details: FIG. 3
Method: 60 cc of an expanding solution (obtained by adding 30 mL of 1% lidocaine, 30 mL of 0.5% bupivacaine, 10 mL of 4.2% sodium bicarbonate and 1 mg of epinephrine to 1 L of normal water for injection) was applied to the periphery of a navel under sterile conditions. Fats were suctioned using Mercedes 3 mm×9 cm Aspiration Luer Lock Cannula (Byron Medical, Tucson, Ariz.), and then instantly kept on ice. Since a lipoaspirate filtered through a 250 mm sieve included an anesthetic and a contaminant such as blood, the lipoaspirate was washed with phosphate buffered saline (PBS) to remove the anesthetic and the contaminant. […]
Cells were washed once with PBS, and lysed for approximately 20 minutes in a lysis buffer (Cell Signaling Technology) containing 20 mM Tris (pH 7.5), 150 mM NaCl, 1 mM Na2-EDTA, 1 mM EGTA, 1% Triton, 2.5 mM sodium pyrophosphate, 1 mM β-glycerophosphate, 1 mM Na3VO4, 1 mg/ml leupeptin and 1 mM phenylmethylsulfonyl fluoride. […] A concentration of proteins was measured using a Bradford protein assay kit (Bio-Rad). A quantitative protein was separated on a 12% sodium dodecyl sulfate-polyacrylamide gel, and transferred to a polyvinylidene difluoride membrane (Millipore). […] After thorough washing, a band was detected using an improved chemiluminogenic reagent (GE Healthcare Life Sciences). The intensity of the band was quantified using an Image J 1.40 g software (NIH).

[3] = test system: human adipose tissue-derived mesenchymal stem cells; assay: Alcian Blue dyeing of sulfated proteoglycan (quantified chondrogenesis); format: cell-based; details: 1 μM, 11 days, optical density at 650 nm, p<0.05 vs. control, FIG. 1
Method: as §1, with “The obtained stroma vascular (SV) cells were washed with 0.1% BSA, suspended in an M-199 medium (including 12.8% fetal bovine serum, heparin, 10,000 U/mL penicillin G, 25 mg/mL amphotericin B, and 10,000 mg/mL streptomycin), plated on a gelatin-coated tissue culture flask, and then incubated. After 24 hours, the tissue culture flask was washed to remove non-attached cells, and the incubation was continued.” left out
Cells were first washed three times with PBS (Gibco), and then immobilized with 100% methanol (Sigma) at −20° C. for 10 minutes. […] To quantify the dyeing intensity, the dyed culture plate was washed three times with PBS, and each well was extracted with 1 ml of 6 M guanidine-HCl (Sigma) overnight at room temperature. The optical density of the extracted dye was measured at 650 nm.

[4] = test system: fibronectin, α5-integrin, N-cadherin; assay: Semi-quantitative RT-PCR of fibronectin, integrin α5β1 and N-cadherin in treated mesenchymal stem cells; format: cell-based, human; details: 1 μM for 11 days, normalized to GAPDH, FIG. 4
Method: as §1
When the mesenchymal stem cells were subcultured twice, the mesenchymal stem cells were seeded at a density of 2×10^5 cells/ml in a 60 mm plate containing the same medium as described above, and treated with the compound of Formula 1 (each of the compounds of Examples 1 to 28) at a final concentration of 10 nM, 100 nM, 1 μM, or 10 μM. In this case, the mesenchymal stem cells were incubated for 11 days while replacing a medium including the compound of Formula 1 with a fresh one once every 3 days.
Expression levels of various genes were analyzed through an RT-PCR method. Total RNA was obtained using an Ultraspect™-II RNA system (Biotecx Laboratories, Inc., USA) and an easy-BLUE™ kit (Intron Biotechnology, Seoul, South Korea). […]

SMILES: O=S(=O)(Nc1cccc2c(O)cccc12)c1ccc(-c2ccccc2)cc1 [Compound A1949, Biphenyl-4-sulfonic acid (5-hydroxy-naphthalen-1-yl)-amide]
- induction of differentiation of mesenchymal stem cells to chondrocytes (aggrecan expression) compared with A1942 [1]: at a level similar to the A1942 compound

SMILES: N#CC(=C(/N)Sc1ccccc1N)/C(C#N)=C(\N)Sc1ccccc1N [Compound U0126, reference compound]
- phosphorylation level of ERK, group treated with A1942 and U0126 ([2]; A1942 1 μM plus U0126, 11 days): did not increase with time
- expression level of aggrecan, co-treatment with A1942 ([1]; mesenchymal stem cells treated with 1 μM A1942 + U0126, FIG. 2): reduced an expression level of the aggrecan

SMILES: O=C(O)c1cc(NS(=O)(=O)c2cccc3cccnc23)ccc1O [Compound A1944, 2-Hydroxy-5-(quinoline-8-sulfonylamino)-benzoic acid]
- induction of differentiation of mesenchymal stem cells to chondrocytes (aggrecan expression) compared with A1942 [1]: at a level similar to the A1942 compound

SMILES: O=S(=O)(Nc1ccc(O)cc1)c1cccc2cccnc12 [Compound A1942, Quinoline-8-sulfonic acid (4-hydroxy-phenyl)-amide]
- phosphorylation level of ERK ([2]; 1 μM for 11 days): increased with time
- expression level of aggrecan ([1]; 0.1, 0.5 and 1 μM for 11 days, FIG. 2): increased in a dose-dependent manner
- relative absorbance (Alcian Blue) versus control [3]: approximately 3 times
- expression level of N-cadherin [4]: decreased with time
- expression level of fibronectin [4]: decreased with time
- expression level of α5-integrin [4]: decreased with time

SMILES: O=S(=O)(Nc1cccc2ccc(O)cc12)c1cccc2cccnc12 [Compound A1943, Quinoline-8-sulfonic acid (7-hydroxy-naphthalen-1-yl)-amide]
- induction of differentiation of mesenchymal stem cells to chondrocytes (aggrecan expression) compared with A1942 [1]: at a level similar to the A1942 compound

SMILES: CC(C)(C)c1ccc(S(=O)(=O)Nc2ccc(O)c(C(=O)O)c2)cc1 [Compound A1948, 5-(4-Tert-butyl-benzenesulfonyl-amino)-2-hydroxy-benzoic acid]
- induction of differentiation of mesenchymal stem cells to chondrocytes (aggrecan expression) compared with A1942 [1]: at a level similar to the A1942 compound

SMILES: Cc1ccc(S(=O)(=O)Nc2ccc(O)c3ccccc23)cc1 [Compound A1950, N-(4-hydroxy-naphthalen-1-yl)-4-methyl-benzenesulfonamide]
- induction of differentiation of mesenchymal stem cells to chondrocytes (aggrecan expression) compared with A1942 [1]: at a level similar to the A1942 compound
